What all share (assay): Bliss interaction score (quartile over a dose matrix) (fitness difference); higher = more antagonism (negative = synergy)
In one assay the test system is B. subtilis 168. Put shortly:
(§1)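 OD595 was read at entry into stationary phase and expressed relative to the robust mean of the no-drug wells on the same plate, capped at 1. The resulting ratio is the fitness value. The Bliss score, observed fitness minus product-based expected fitness with single-drug fitness inferred from combinations, is summarised by quartiles over technical, biological and donor/recipient replicates.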

Another assay relates to S. aureus DSM 20231. The method, boiled down:
as §1

The test system of the next assay is S. aureus Newman. Put shortly: as §1
A further assay deals with S. pneumoniae D39V. The method, boiled down: as §1

Here are results for 14 molecules from the supplement of paper PMC10627819.
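Further: first quartile when negative (synergy) and third quartile when positive (antagonism).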

As for `CC(=O)Oc1ccccc1C(=O)O` [Acetylsalicylicacid] + CN[C@@H]1[C@H](O)[C@H](NC)[C@H]2O[C@@]3(O)C(=O)C[C@@H](C)O[C@H]3O[C@@H]2[C@H]1O [Spectinomycin], the Bliss interaction score was 0.137 in the assay on B. subtilis 168, -0.0696 with S. aureus DSM 20231, 0.0859 with S. aureus Newman and -0.0679 in the assay with S. pneumoniae D39V.
Take `C[C@H]1c2cccc(O)c2C(=O)C2=C(O)[C@]3(O)C(=O)C(C(N)=O)=C(O)[C@@H](N(C)C)[C@@H]3[C@@H](O)[C@@H]21` [Doxycycline] + Oc1cc(Cl)ccc1Oc1ccc(Cl)cc1Cl [Triclosan]: the Bliss interaction score with B. subtilis 168 was -0.0554; with S. aureus DSM 20231, -0.0352; in the assay with S. aureus Newman, 0.0244; in the assay on S. pneumoniae D39V, 0.0668.
As to `CC(=O)Oc1ccccc1C(=O)O` [Acetylsalicylicacid] + CC1(C)S[C@@H]2[C@H](NC(=O)Cc3ccccc3)C(=O)N2[C@H]1C(=O)O [PenicillinG], the Bliss interaction score was 0.117 in the assay with B. subtilis 168, 0.101 in the assay with S. aureus DSM 20231, 0.0702 in the assay with S. aureus Newman and -0.0595 in the assay with S. pneumoniae D39V.
Regarding `CO/N=C(\C(=O)N[C@@H]1C(=O)N2C(C(=O)O)=C(COC(N)=O)CS[C@H]12)c1ccco1` [Cefuroxime] + CN[C@H](CC(C)C)C(=O)N[C@H]1C(=O)N[C@@H](CC(N)=O)C(=O)N[C@H]2C(=O)N[C@H]3C(=O)N[C@H](C(=O)N[C@H](C(=O)O)c4cc(O)cc(O)c4-c4cc3ccc4O)[C@H](O[C@H]3C[C@](C)(N)[C@@H](O)[C@H](C)O3)c3ccc(c(Cl)c3)Oc3cc2cc(c3O[C@@H]2O[C@H](CO)[C@@H](O)[C@H](O)[C@H]2O[C@H]2C[C@](C)(NCc3ccc(-c4ccc(Cl)cc4)cc3)[C@@H](O)[C@H](C)O2)Oc2ccc(cc2Cl)[C@H]1O [Oritavancin], the Bliss interaction score with B. subtilis 168 is -0.0309; in the assay with S. aureus DSM 20231, -0.0743; in the assay with S. aureus Newman it was -0.103; in the assay on S. pneumoniae D39V it was 0.0536.
On the same counts, the results for `CN(C)[C@@H]1C(O)=C(C(N)=O)C(=O)[C@@]2(O)C(O)=C3C(=O)c4c(O)ccc(Cl)c4[C@@](C)(O)[C@H]3C[C@@H]12` [Clortetracycline] + O=C1CN(/N=C/c2ccc([N+](=O)[O-])o2)C(=O)N1 [Nitrofurantoin] are -0.158, 0.016, -0.0647 and -0.0355.
For the molecule `CO/N=C(\C(=O)N[C@@H]1C(=O)N2C(C(=O)O)=C(COC(N)=O)CS[C@H]12)c1ccco1` [Cefuroxime] + CO[C@@]12[C@H](COC(N)=O)C3=C(C(=O)C(C)=C(N)C3=O)N1C[C@@H]1N[C@@H]12 [MitomycinC], the Bliss interaction score is -0.211 in the assay on B. subtilis 168, -0.0745 in the assay with S. aureus DSM 20231, -0.0903 in the assay on S. aureus Newman and 0.0599 in the assay with S. pneumoniae D39V.
For the molecule `CN(C)[C@@H]1C(O)=C(C(N)=O)C(=O)[C@@]2(O)C(O)=C3C(=O)c4c(O)ccc(Cl)c4[C@@](C)(O)[C@H]3C[C@@H]12` [Clortetracycline] + CO[C@@H]1[C@@H](OC(N)=O)[C@@H](O)[C@H](Oc2ccc3c(O)c(NC(=O)c4ccc(O)c(CC=C(C)C)c4)c(=O)oc3c2C)OC1(C)C [Novobiocin], the Bliss interaction score is 0.0909 with B. subtilis 168, 0.104 with S. aureus DSM 20231, 0.0791 in the assay on S. aureus Newman and 0.192 in the assay on S. pneumoniae D39V.
As to `CO/N=C(\C(=O)N[C@@H]1C(=O)N2C(C(=O)O)=C(COC(C)=O)CS[C@H]12)c1csc(N)n1` [Cefotaxime] + CC[C@H]1OC(=O)[C@H](C)[C@@H](O[C@H]2C[C@@](C)(OC)[C@@H](O)[C@H](C)O2)[C@H](C)[C@@H](O[C@@H]2O[C@H](C)C[C@H](N(C)C)[C@H]2O)[C@](C)(O)C[C@@H](C)C(=O)[C@H](C)[C@@H](O)[C@]1(C)O [Erythromycin], the Bliss interaction score with B. subtilis 168 was 0.0702; in the assay on S. aureus DSM 20231, 0.016; in the assay on S. aureus Newman, -0.0525; in the assay with S. pneumoniae D39V it was 0.0515.
Consider `CC(=O)Oc1ccccc1C(=O)O` [Acetylsalicylicacid] + CC[C@H](C)[C@H](N)C1=N[C@H](C(=O)N[C@@H](CC(C)C)C(=O)N[C@H](CCC(=O)O)C(=O)N[C@H](C(=O)N[C@H]2CCCCNC(=O)[C@H](CC(N)=O)NC(=O)[C@@H](CC(=O)O)NC(=O)[C@H](Cc3cnc[nH]3)NC(=O)[C@@H](Cc3ccccc3)NC(=O)[C@H]([C@@H](C)CC)NC(=O)[C@@H](CCCN)NC2=O)[C@@H](C)CC)CS1 [Bacitracin], for which the Bliss interaction score is 0.123 in the assay on B. subtilis 168 (main component drawn), 0.0276 in the assay on S. aureus DSM 20231 (main component drawn), -0.0752 with S. aureus Newman (main component drawn) and 0.165 with S. pneumoniae D39V (main component drawn).
For `CO/N=C(\C(=O)N[C@@H]1C(=O)N2C(C(=O)O)=C(COC(C)=O)CS[C@H]12)c1csc(N)n1` [Cefotaxime] + CN[C@H](CC(C)C)C(=O)N[C@H]1C(=O)N[C@@H](CC(N)=O)C(=O)N[C@H]2C(=O)N[C@H]3C(=O)N[C@H](C(=O)N[C@H](C(=O)O)c4cc(O)cc(O)c4-c4cc3ccc4O)[C@H](O[C@H]3C[C@](C)(N)[C@@H](O)[C@H](C)O3)c3ccc(c(Cl)c3)Oc3cc2cc(c3O[C@@H]2O[C@H](CO)[C@@H](O)[C@H](O)[C@H]2O[C@H]2C[C@](C)(NCc3ccc(-c4ccc(Cl)cc4)cc3)[C@@H](O)[C@H](C)O2)Oc2ccc(cc2Cl)[C@H]1O [Oritavancin], the Bliss interaction score is 0.0516 in the assay with B. subtilis 168, 0.0947 in the assay with S. aureus DSM 20231, 0.0965 with S. aureus Newman and -0.106 in the assay with S. pneumoniae D39V.
Regarding `CO/N=C(\C(=O)N[C@@H]1C(=O)N2C(C(=O)O)=C(COC(N)=O)CS[C@H]12)c1ccco1` [Cefuroxime] + C[C@@H](O)[C@H]1C(=O)N2C(C(=O)O)=C(SCCNC=N)C[C@H]12 [Imipenem], the Bliss interaction score with B. subtilis 168 was 0.0678; with S. aureus DSM 20231, 0.145; in the assay with S. aureus Newman, -0.0353; in the assay with S. pneumoniae D39V, 0.0481.
For `CN(C)[C@@H]1C(O)=C(C(N)=O)C(=O)[C@@]2(O)C(O)=C3C(=O)c4c(O)ccc(Cl)c4[C@@](C)(O)[C@H]3C[C@@H]12` [Clortetracycline] + CN[C@@H]1[C@H](O[C@H]2[C@H](O[C@H]3[C@H](O)[C@@H](O)[C@H](N=C(N)N)[C@@H](O)[C@@H]3N=C(N)N)O[C@@H](C)[C@]2(O)C=O)O[C@@H](CO)[C@H](O)[C@H]1O [Streptomycin], in that order: 0.156, -0.0487, -0.0515 and -0.0408.
`CC(=O)Oc1ccccc1C(=O)O` [Acetylsalicylicacid] + CC[C@H]1OC(=O)[C@H](C)C(=O)[C@H](C)[C@@H](O[C@@H]2O[C@H](C)C[C@H](N(C)C)[C@H]2O)[C@](C)(OC)C[C@@H](C)C(=O)[C@H](C)[C@H]2N(CCCCn3cnc(-c4cccnc4)c3)C(=O)O[C@]12C [Telithromycin]: the Bliss interaction score with B. subtilis 168 is 0.205; in the assay with S. aureus DSM 20231, 0.0695; in the assay with S. aureus Newman, 0.0539; in the assay on S. pneumoniae D39V, -0.043.
As to `CC(=O)Oc1ccccc1C(=O)O` [Acetylsalicylicacid] + CN(C)[C@@H]1C(O)=C(C(N)=O)C(=O)[C@@]2(O)C(O)=C3C(=O)c4c(O)ccc(Cl)c4[C@@](C)(O)[C@H]3C[C@@H]12 [Clortetracycline], the Bliss interaction score in the assay with B. subtilis 168 is -0.311; in the assay with S. aureus DSM 20231, -0.101; in the assay with S. aureus Newman, -0.0574; with S. pneumoniae D39V it was -0.0497.
